Literature values in patent US8952000B2, “Cholesterol absorption inhibitor and omega 3 fatty acids for the reduction of cholesterol and for the prevention or reduction of cardiovascular, cardiac and vascular events” (Pivotal Therapeutics Inc., priority 2011, dated 2015).

O=C1[C@H](CC[C@H](O)c2ccc(F)cc2)[C@@H](c2ccc(O)cc2)N1c1ccc(F)cc1 [Ezetimibe, (3R,4S)-1-(p-fluorophenyl)-3-[(3S)-3-(p-fluorophenyl)-3-hydroxypropyl]-4-(p-hydroxyphenyl)-2-azetidinone]
solubility in ethanol, methanol, and acetone (ethanol, methanol, acetone): freely to very soluble
solubility in water (water): practically insoluble
